For 23 compounds, GI50 and TGI results are on record in PubChem BioAssay (NCI).

Some test systems named below: 786-0 renal; COLO 205 colon; HS 578T breast; OVCAR-4 ovarian; SF-295 CNS; SR leukemia; K-562 leukemia; MCF7 breast; RXF 393 renal; SF-539 CNS.
Assay in all cases: growth of human tumour cells (NCI), 48 h

Several values for one entry are separate records, joined by “and”; a condition that tells them apart may be missing. Identical values can stand only once.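 These data come from cells grown in 96-well plates and exposed to compound for 48 hours at five concentrations. The concentration for 50% growth inhibition is given as GI50. The concentration for full growth arrest is given as TGI.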

On to `COc1ccc(C2c3cc4c(c(OC)c3CC3OCC(=O)C32)OCO4)cc1OC` (centres undefined), for which the GI50 is less than 0.01 µM in the assay with 786-0 renal, less than 0.01 µM in the assay with COLO 205 colon, 15.7 µM in the assay with OVCAR-4 ovarian and less than 0.01 µM with SF-295 CNS. Further, the TGI in the assay on 786-0 renal is greater than 100 µM; with COLO 205 colon, 0.074 µM and 0.0135 µM; in the assay on HS 578T breast it was 46.4 µM; with OVCAR-4 ovarian, greater than 100 µM; in the assay with SF-295 CNS, less than 0.01 µM; in the assay with SR leukemia it was less than 0.01 µM.

In the case of `O=C(NC1CCNCC1)c1[nH]ncc1NC(=O)c1c(Cl)cccc1Cl`, the GI50 with 786-0 renal was 1 µM and 0.543 µM; with COLO 205 colon, 0.218 µM and 0.182 µM; in the assay on HS 578T breast it was 0.307 µM and 0.329 µM; in the assay on K-562 leukemia, 0.476 µM and 0.403 µM; in the assay on MCF7 breast it was 0.198 µM and 0.18 µM; in the assay on OVCAR-4 ovarian, 0.402 µM and 0.383 µM. For the same compound, the GI50 in the assay on RXF 393 renal was 0.236 µM and 0.202 µM; in the assay on SF-295 CNS it was 1.13 µM and 1.01 µM; in the assay on SF-539 CNS, 0.271 µM and 0.257 µM. The TGI in the assay on 786-0 renal is greater than 100 µM; in the assay with COLO 205 colon it was 0.558 µM and 0.726 µM; in the assay with HS 578T breast, 3.83 µM and > 2.71 µM; in the assay with K-562 leukemia, greater than 100 µM; in the assay on MCF7 breast, greater than 100 µM; with OVCAR-4 ovarian, 14 µM and > 10 µM. The TGI was 0.635 µM and 0.464 µM with RXF 393 renal; greater than 51.8 µM in the assay with SF-295 CNS; 0.7 µM and 0.666 µM in the assay with SF-539 CNS.

Consider `CC(C)(C)C1CCP(=O)(c2ccccc2)CC1` (centres undefined), for which the TGI in the assay on 786-0 renal, in the assay on COLO 205 colon, in the assay on K-562 leukemia, with OVCAR-4 ovarian, with RXF 393 renal and with SF-295 CNS was greater than 100 µM in each case. The TGI in the assay on SF-539 CNS and with SR leukemia was greater than 100 µM in each case.

Consider `Cc1ccc(C)c(NC(=O)C(=O)CC(=O)c2cccc3ccccc23)c1`, for which the TGI in the assay with 786-0 renal, in the assay with COLO 205 colon, with K-562 leukemia, in the assay on OVCAR-4 ovarian, with RXF 393 renal and with SF-295 CNS was greater than 100 µM each time. Besides, the TGI with SF-539 CNS and in the assay on SR leukemia was greater than 100 µM throughout.

As to `C=C(CS(=O)(=O)c1ccccc1)C(=O)OCC`, the TGI in the assay on 786-0 renal was 31.9 µM; in the assay with COLO 205 colon, 38.9 µM; in the assay on K-562 leukemia, 35 µM; with RXF 393 renal, 24.4 µM; in the assay with SF-295 CNS, 32 µM; in the assay on SF-539 CNS, 33.2 µM.

Regarding `CN(C(=O)C12C3C4C1C1C2C3C41C(=O)N(C)C(C)(C)C)C(C)(C)C` (centres undefined), the TGI in the assay on 786-0 renal, in the assay with COLO 205 colon, in the assay with K-562 leukemia, with SF-295 CNS, in the assay with SF-539 CNS and in the assay on SR leukemia was greater than 50 µM each time.

Take `NC(=O)c1ccccc1NC(=O)C(=O)Nc1n[nH]c(N)n1`: the TGI in the assay on 786-0 renal, in the assay with COLO 205 colon, in the assay with K-562 leukemia, in the assay with OVCAR-4 ovarian, in the assay on RXF 393 renal and with SF-295 CNS was greater than 100 µM in each case. Besides, the TGI in the assay on SF-539 CNS and in the assay with SR leukemia was greater than 100 µM each time.

As to `Cc1ccc(S(=O)(=O)Nc2cccc(C)c2C)cc1`, the TGI in the assay on 786-0 renal was greater than 100 µM; in the assay with COLO 205 colon, greater than 100 µM; in the assay with K-562 leukemia it was greater than 100 µM; in the assay with OVCAR-4 ovarian, greater than 100 µM; in the assay on RXF 393 renal it was 84 µM; in the assay with SF-295 CNS it was greater than 100 µM. Further, the TGI with SF-539 CNS and in the assay with SR leukemia was greater than 100 µM each time.

For `O=S1c2ccccc2N=C(c2ccc3ccccc3c2)CC1c1ccccc1F` (centres undefined), the TGI in the assay on 786-0 renal, in the assay on COLO 205 colon, in the assay on K-562 leukemia, in the assay with OVCAR-4 ovarian, with RXF 393 renal and with SF-295 CNS was greater than 100 µM throughout. Also, the TGI in the assay on SF-539 CNS is greater than 100 µM.

For `COc1cc(-c2ccccc2)c(OC)cc1CCl`, the TGI with 786-0 renal, in the assay with COLO 205 colon, in the assay with K-562 leukemia, in the assay on OVCAR-4 ovarian, with RXF 393 renal and in the assay on SF-295 CNS was greater than 100 µM in each case. In the assay with SF-539 CNS, this compound had a TGI greater than 100 µM.

Turning to `O=C1NC(=O)C(N2CCc3ccccc32)=C1c1ccc(Cl)cc1`, the GI50 was greater than 10 µM with 786-0 renal; greater than 25 µM in the assay with COLO 205 colon; greater than 25 µM in the assay with HS 578T breast; greater than 25 µM in the assay with K-562 leukemia; greater than 25 µM in the assay with MCF7 breast; greater than 25 µM in the assay with OVCAR-4 ovarian. Besides, the GI50 with RXF 393 renal, with SF-295 CNS and in the assay on SF-539 CNS was greater than 25 µM throughout. In addition, the TGI was greater than 14.5 µM with 786-0 renal; greater than 25 µM in the assay on COLO 205 colon; greater than 25 µM in the assay on HS 578T breast; greater than 25 µM with K-562 leukemia; greater than 25 µM with MCF7 breast; greater than 25 µM in the assay with OVCAR-4 ovarian. The TGI in the assay with RXF 393 renal, in the assay with SF-295 CNS and with SF-539 CNS was greater than 25 µM throughout.

On to `Cc1nn2c(=O)n(-c3cccc(-n4nnc5c(-c6ccccc6)c(C)nn5c4=O)c3C)nnc2c1-c1ccccc1`, for which the TGI in the assay with 786-0 renal was greater than 100 µM; in the assay with COLO 205 colon, 42.7 µM; in the assay on K-562 leukemia, greater than 100 µM; in the assay with OVCAR-4 ovarian, 53.7 µM; in the assay with RXF 393 renal it was greater than 100 µM; with SF-295 CNS, greater than 100 µM. Also, the TGI in the assay on SF-539 CNS came to 64 µM; in the assay with SR leukemia it was 55.8 µM.

Take `COC(=O)[C@H]1CC(=O)C=C2CCCC21` (some centres undefined): the TGI in the assay on 786-0 renal, in the assay with COLO 205 colon, with K-562 leukemia, in the assay on OVCAR-4 ovarian, in the assay with RXF 393 renal and with SF-295 CNS was greater than 100 µM each time. This compound registered a TGI in the assay with SF-539 CNS greater than 100 µM.

For the compound `CN=c1ss/c(=N\C(=S)N(C)C)n1C1CCCCC1`, the TGI was greater than 10 µM in the assay with 786-0 renal; greater than 31.6 µM in the assay with COLO 205 colon; greater than 31.6 µM in the assay with K-562 leukemia; greater than 31.6 µM in the assay on OVCAR-4 ovarian; greater than 31.6 µM in the assay with RXF 393 renal; greater than 31.6 µM in the assay on SF-295 CNS. In the assay with SF-539 CNS, this compound registered a TGI greater than 100 µM.

For the compound `CC1=C(C(=O)Nc2cccc(C(F)(F)F)c2)C(c2ccccc2F)C(C(=O)Nc2cccc(C(F)(F)F)c2)=C(C)N1`, the TGI in the assay with 786-0 renal was 19.4 µM; with COLO 205 colon, 20.5 µM; with K-562 leukemia, 18.6 µM; with OVCAR-4 ovarian, 14 µM; in the assay on RXF 393 renal, 15.5 µM; in the assay on SF-295 CNS, 20.3 µM. Also, in the assay with SF-539 CNS, the TGI was 23.8 µM.

In the case of `O=c1c2cc(Br)ccc2[nH]c(=S)n1-c1ccccc1`, the TGI in the assay on 786-0 renal, in the assay on COLO 205 colon, in the assay on K-562 leukemia, with OVCAR-4 ovarian, in the assay with SF-295 CNS and in the assay on SF-539 CNS was greater than 100 µM each time.

As for `CC(C)(C)C1CCC(CI)(N=[N+]=[N-])CC1` (centres undefined), the TGI in the assay on 786-0 renal, in the assay on COLO 205 colon, in the assay on K-562 leukemia, in the assay on OVCAR-4 ovarian, with RXF 393 renal and with SF-295 CNS was greater than 100 µM in each case. For the same compound, the TGI in the assay with SF-539 CNS and in the assay with SR leukemia was greater than 100 µM throughout.

As for `O=C1C=CC(=O)c2c1cc1ccccc1c2O`, the TGI in the assay with 786-0 renal is 18.7 µM; with COLO 205 colon it was 6.15 µM; in the assay on HS 578T breast, 38.9 µM; with K-562 leukemia, 4.85 µM; with OVCAR-4 ovarian, 5.67 µM; in the assay on RXF 393 renal, 4.98 µM. In addition, the TGI came out at 31.6 µM in the assay with SF-295 CNS and 25 µM with SF-539 CNS.

As to `CC1(C)C(=O)CCC(=O)C(C)(C)C2=CC=C(O2)C(C)(C)C(=O)CCC(=O)C(C)(C)C2=CC=C1O2`, the TGI in the assay with 786-0 renal, in the assay on COLO 205 colon, with K-562 leukemia, with OVCAR-4 ovarian, in the assay on RXF 393 renal and in the assay on SF-295 CNS was greater than 100 µM in each case. For the same compound, the TGI in the assay with SR leukemia is greater than 100 µM.

`CC(N)CN.CC(N)CN.[Cl-].[O]=[Os+2]=[O]` (centres undefined): the GI50 in the assay with 786-0 renal is 64.5 µM; with COLO 205 colon, 70.2 µM; in the assay on OVCAR-4 ovarian, greater than 100 µM; in the assay on RXF 393 renal, greater than 100 µM; in the assay with SF-295 CNS, greater than 100 µM; in the assay with SF-539 CNS, greater than 100 µM. The GI50 in the assay on SR leukemia is 28.6 µM. Besides, the TGI in the assay with 786-0 renal, with COLO 205 colon, in the assay with OVCAR-4 ovarian, in the assay with RXF 393 renal, with SF-295 CNS and with SF-539 CNS was greater than 100 µM throughout. Moreover, the TGI in the assay on SR leukemia is greater than 100 µM.

With `COc1ccc(/C=c2\sc3nnc(CCC(=O)Nc4cccc(C(F)(F)F)c4)n3c2=O)cc1`, the TGI is greater than 100 µM with 786-0 renal; greater than 100 µM in the assay with COLO 205 colon; greater than 100 µM in the assay on K-562 leukemia; greater than 100 µM in the assay with OVCAR-4 ovarian; 98.5 µM in the assay with RXF 393 renal; greater than 100 µM in the assay with SF-295 CNS. In addition, the TGI in the assay with SF-539 CNS was greater than 100 µM; in the assay with SR leukemia, 75.8 µM.

For `COC(=O)CSc1n[nH]c(-c2ccccc2)n1`, the TGI in the assay with 786-0 renal, in the assay with COLO 205 colon, with K-562 leukemia, in the assay on OVCAR-4 ovarian, with SF-295 CNS and in the assay with SF-539 CNS was greater than 100 µM in each case. Besides, the TGI in the assay with SR leukemia was determined as 43.5 µM.

As to `CN(C)CCCNC(=O)c1cccc2nc3ccccc3nc12`, the TGI in the assay on 786-0 renal is greater than 100 µM; with COLO 205 colon, greater than 48.3 µM; in the assay with K-562 leukemia, 60.4 µM; in the assay with OVCAR-4 ovarian it was 47.2 µM; in the assay with RXF 393 renal, 34.6 µM; in the assay with SF-295 CNS, greater than 55.4 µM. Also, the results for the TGI in the assay with SF-539 CNS and with SR leukemia were 54.2 µM and greater than 100 µM, respectively.
